This passage reports cytotoxicity results from ChEMBL document CHEMBL3507680, “University of Dundee, Gates Library screen for HepG2 cell viability”.

A short description of the series: Human HepG2 cell viability assay in 384 well format. Conditions: HepG2 cells, read-out: Inhibition. It counts as toxicity, cell-based. The arrangement: dose 125 nL, time 70.5 hour; concentration not given beside the values.

Each structure is given as a SMILES string.

As for `CCNC(=O)N1CCC(c2ccccc2)C1` (stereo not given), the cytotoxicity at 70.5 h came to 2.66%.

`CS(=O)(=O)N1CCC(CNC(=O)c2cnccn2)CC1`: the cytotoxicity at 70.5 h was found to be 31.3%.

Regarding `COc1ccc(CN2CC[C@H](c3nnc(-c4ccco4)o3)C2)cc1`, the cytotoxicity at 70.5 h is 23%.

Take `NC(=O)CN1C(=O)CO[C@H]2CN(Cc3ccc(Cl)cc3)C[C@H]21`: the cytotoxicity at 70.5 h is 13%.

Consider `CCNC(=O)N1C[C@@H]2OCC(=O)N(CC3CCCCC3)[C@@H]2C1`, for which the cytotoxicity at 70.5 h was -3.95%.

Regarding `COCC(=O)N[C@H]1C[C@@H](Cc2cc(CN3CCCCC3)on2)C1(C)C`, the cytotoxicity at 70.5 h stood at 24.1%.

Take `CN1CCOC[C@H]1c1nc(-c2cccc(F)c2)c[nH]1`: the cytotoxicity at 70.5 h worked out at 2.61%.

For the compound `CC(C)(C)c1coc([C@@H]2COCCN2Cc2ccccn2)n1`, the cytotoxicity at 70.5 h was determined as 2.91%.

With `CC(C)(C)c1coc([C@@H]2COCCN2Cc2ncc[nH]2)n1`, the cytotoxicity at 70.5 h is -0.512%.

As to `CN1CCC(N2CCOC[C@H]2c2nc(-c3ccncc3)c[nH]2)CC1`, the cytotoxicity at 70.5 h stood at 3.14%.

Regarding `CC(=O)N1CC[C@H](c2nc3cc(F)ccc3o2)C1`, the cytotoxicity at 70.5 h amounted to 2.32%.

In the case of `CCN(CC)C[C@H]1CN2CC[C@H]1C[C@@H]2CNC(=O)Nc1ccsc1`, the cytotoxicity at 70.5 h was -8.02%.

For `Cn1cncc1-c1nnc([C@H]2CCN(Cc3ccc(CO)o3)C2)o1`, the cytotoxicity at 70.5 h amounted to 5.94%.

For the compound `Cn1cncc1-c1nnc([C@H]2CCN(Cc3ncc[nH]3)C2)o1`, the cytotoxicity at 70.5 h turned out to be 2.99%.

Take `COc1ccc(-c2nnc([C@H]3CCN(CC(C)(C)C)C3)o2)cc1`: the cytotoxicity at 70.5 h is -1.13%.

With `c1cc(-c2nnc([C@H]3CCN(C4CCCCC4)C3)o2)ccn1`, the cytotoxicity at 70.5 h was -0.595%.

For the compound `COc1cccc(CN2CC[C@H](c3nnc(C)o3)C2)c1`, the cytotoxicity at 70.5 h came out at 2.22%.

For the compound `c1cc(-c2nnc([C@H]3CCN(C4CCOCC4)C3)o2)ccn1`, the cytotoxicity at 70.5 h was determined as 2.55%.

For the compound `c1ccc2c(Cc3nnc([C@H]4CCN(C5CCC5)C4)o3)c[nH]c2c1`, the cytotoxicity at 70.5 h is -6.08%.

Take `Cc1ccc(CN2CC[C@H](c3nnc(-c4ccco4)o3)C2)cc1`: the cytotoxicity at 70.5 h is 6.16%.

In the case of `CCCc1nnc([C@H]2CCN(Cc3ncc[nH]3)C2)o1`, the cytotoxicity at 70.5 h was -1.6%.

For `O=C(C1CC1)N1C[C@@H](F)[C@@H](OCc2nc3ccccc3[nH]2)C1`, the cytotoxicity at 70.5 h turned out to be 4.35%.

Turning to `COc1ccc(CN2C[C@@H](F)[C@@H](OCc3nc4cnccc4[nH]3)C2)cn1`, the cytotoxicity at 70.5 h is -4.62%.

With `N#Cc1cccc(CN2C[C@@H](F)[C@@H](OCc3nc4ccccc4[nH]3)C2)c1`, the cytotoxicity at 70.5 h is -2.32%.

With `Cc1cccc(CN2C[C@@H](F)[C@@H](OCc3nc4ccccc4[nH]3)C2)n1`, the cytotoxicity at 70.5 h was -1.57%.

Consider `COc1ccc(CN2C[C@@H](F)[C@@H](OCc3nc4ccccc4[nH]3)C2)cn1`, for which the cytotoxicity at 70.5 h was -2.98%.

As for `O=C1CO[C@H](c2ccc(NS(=O)(=O)Cc3ccccc3)cc2)[C@@H](CO)N1`, the cytotoxicity at 70.5 h is 12%.

For `CC(=O)Nc1ccc2c(c1)nc1n2[C@@H](CNCc2ccccc2)COC1`, the cytotoxicity at 70.5 h was -11.7%.

Consider `COc1ccc(CNC[C@H]2COCc3nc4cc(F)ccc4n32)cc1`, for which the cytotoxicity at 70.5 h was -14.9%.

On to `Cc1cc2nc(CO[C@H]3CN(C(=O)C4CC4)C[C@H]3F)[nH]c2cc1C`, for which the cytotoxicity at 70.5 h turned out to be 27.1%.

Consider `Cc1cc2nc(CO[C@H]3CN(C4CCCCC4)C[C@H]3F)[nH]c2cc1C`, for which the cytotoxicity at 70.5 h was 3.34%.

`Cc1cc2nc(CO[C@H]3CN(CC4CC4)C[C@H]3F)[nH]c2cc1C`: the cytotoxicity at 70.5 h was -2.67%.

Turning to `COC(=O)c1cccc2nc([C@H]3CCN(CC(C)C)C3)oc12`, the cytotoxicity at 70.5 h is -4.07%.

Consider `Fc1ccc2[nH]c([C@H]3CCN(C4CCOCC4)C3)nc2c1`, for which the cytotoxicity at 70.5 h came out at 4.63%.

Turning to `CCS(=O)(=O)c1ccc2oc([C@H]3CCN(CC4CCCCC4)C3)nc2c1`, the cytotoxicity at 70.5 h came to 13.1%.

Turning to `Fc1ccc(OCc2nnc([C@H]3CCN(Cc4ccncc4)C3)o2)cc1`, the cytotoxicity at 70.5 h is -6.85%.

For the compound `CN1CC[C@H](c2nnc(Cc3c[nH]c4ccccc34)o2)C1`, the cytotoxicity at 70.5 h was -1.52%.

As to `COC(=O)[C@@H]1Cc2[nH]cnc2CN1Cc1cc2ccccc2o1`, the cytotoxicity at 70.5 h is -2.5%.

In the case of `CN(Cc1ccccc1)C(=O)[C@@H]1Cc2[nH]cnc2CN1C`, the cytotoxicity at 70.5 h is 9.41%.

Turning to `CN(C[C@H]1CN2CC[C@H]1C[C@@H]2CNC(=O)c1ccco1)c1ccccc1`, the cytotoxicity at 70.5 h was -0.576%.

Turning to `O[C@@H]1C[C@@H](c2nc(-c3ccccc3)no2)N(CC2CCCCC2)C1`, the cytotoxicity at 70.5 h is -12.5%.

On to `CC(C)CN1C(=O)COC[C@@H]1[C@H](O)c1ccc(NC(=O)C2CC2)cc1`, for which the cytotoxicity at 70.5 h was determined as 5.4%.

Consider `Cc1cccc(-c2noc([C@@H]3C[C@@H](O)CN3C)n2)c1`, for which the cytotoxicity at 70.5 h worked out at 3.3%.

Take `O[C@@H]1C[C@@H](c2nc(Cc3ccccc3)no2)N(Cc2ccc(F)cc2)C1`: the cytotoxicity at 70.5 h was -19.1%.

`CCn1nc(C)c(CCNC(=O)C2CCCN(C(=O)N(C)C)C2)c1C` (stereo not given): the cytotoxicity at 70.5 h is -11.9%.

With `Cc1nn(C)cc1C(=O)N1C[C@H]2CC[C@@H]1CN(S(=O)(=O)N(C)C)C2`, the cytotoxicity at 70.5 h was -4.81%.

Regarding `CCOCCn1nc(C)cc1C(=O)N1CC[C@](C)(O)[C@H](C)C1`, the cytotoxicity at 70.5 h is -8.61%.

As to `Cc1cc(N2CCC3(CCC(=O)N(CC4CC4)C3)CC2)nc(N)n1`, the cytotoxicity at 70.5 h is -9.89%.

Take `O=C(O)CCc1cc2n(n1)CCCN(C(=O)c1ccc3cc[nH]c3c1)C2`: the cytotoxicity at 70.5 h was -14%.

As for `NC(=O)COc1cccc(C(=O)Nc2cnc3n2CCCC3)c1`, the cytotoxicity at 70.5 h is -5.66%.

For `CN(Cc1ccon1)C(=O)C1CC(=O)N(Cc2ccncc2)C1` (stereo not given), the cytotoxicity at 70.5 h was -6.33%.

Regarding `O=C1O[C@@H]2CN(Cc3cccc(F)c3)C[C@@H]2N1CCCN1CCOCC1`, the cytotoxicity at 70.5 h stood at 9.24%.

In the case of `O=C(CCc1cc2n(n1)CCCN(C(=O)c1ccccn1)C2)NC1CC1`, the cytotoxicity at 70.5 h was -4.46%.

Consider `COc1ccc2c(c1)CCN(CCC(=O)NC1CCCCC1)CC2`, for which the cytotoxicity at 70.5 h was -9.14%.

Consider `CN1CCCN(C[C@@H]2CN(C(=O)CCC3CCCC3)C[C@@H]2CO)CC1`, for which the cytotoxicity at 70.5 h is -7.86%.

Turning to `CCn1nc(C)c(CCNC(=O)C2CCCN(CC(N)=O)C2)c1C` (stereo not given), the cytotoxicity at 70.5 h amounted to 19.1%.

In the case of `Cc1noc(C)c1CN1CC2(CCN(C(=O)c3cscn3)CC2)CC1=O`, the cytotoxicity at 70.5 h was -10.1%.

Regarding `CN1CCN(Cc2nc3ccccc3[nH]2)[C@H]2CS(=O)(=O)C[C@H]21`, the cytotoxicity at 70.5 h was -10.2%.

Regarding `COc1ccccc1[C@@H]1CN(C(=O)c2csc(C)n2)C[C@H]1C(=O)O`, the cytotoxicity at 70.5 h was -2.79%.

For the compound `O=S1(=O)C[C@@H]2[C@H](C1)N(Cc1cc(Cl)cc(Cl)c1)CCN2CC1CC1`, the cytotoxicity at 70.5 h is -17.1%.

In the case of `NC(=O)CN1CC2(CCC1=O)CCN(Cc1cc(F)ccc1Cl)CC2`, the cytotoxicity at 70.5 h was -11.5%.

`Cc1noc(C)c1C(=O)N(C)Cc1nc(-c2ccccn2)no1`: the cytotoxicity at 70.5 h is -1.56%.

For `Cc1noc([C@@H]2CCCN2C(=O)C2CCN(C(=O)C3CCC3)CC2)n1`, the cytotoxicity at 70.5 h is 10.6%.

`Cc1ccc2cc(C3(O)CCN(C(=O)CN4CCCC4)CC3)ccc2n1`: the cytotoxicity at 70.5 h was -3.01%.

For the compound `Cc1nc[nH]c1CN1C[C@@H]2CC[C@H](C1)N(C(=O)CCc1cnn(C)c1)C2`, the cytotoxicity at 70.5 h is -1.54%.
